Assay results: ChEMBL document CHEMBL1681693, “Synthesis and SAR of centrally active mGlu5 positive allosteric modulators based on an aryl acetylenic bicyclic lactam scaffold” (Bioorg Med Chem Lett, 2011)
Calls of active or inactive are those of the source. The rule behind the calls is not given here.

Legend:
[1] = biological target: T1, Metabotropic glutamate receptor 5 (Homo sapiens, UniProt P41594); assay: Positive allosteric modulation of mGlu5 receptor assessed as calcium mobilization; format: functional
Target sequence in this assay (P41594 whole entry): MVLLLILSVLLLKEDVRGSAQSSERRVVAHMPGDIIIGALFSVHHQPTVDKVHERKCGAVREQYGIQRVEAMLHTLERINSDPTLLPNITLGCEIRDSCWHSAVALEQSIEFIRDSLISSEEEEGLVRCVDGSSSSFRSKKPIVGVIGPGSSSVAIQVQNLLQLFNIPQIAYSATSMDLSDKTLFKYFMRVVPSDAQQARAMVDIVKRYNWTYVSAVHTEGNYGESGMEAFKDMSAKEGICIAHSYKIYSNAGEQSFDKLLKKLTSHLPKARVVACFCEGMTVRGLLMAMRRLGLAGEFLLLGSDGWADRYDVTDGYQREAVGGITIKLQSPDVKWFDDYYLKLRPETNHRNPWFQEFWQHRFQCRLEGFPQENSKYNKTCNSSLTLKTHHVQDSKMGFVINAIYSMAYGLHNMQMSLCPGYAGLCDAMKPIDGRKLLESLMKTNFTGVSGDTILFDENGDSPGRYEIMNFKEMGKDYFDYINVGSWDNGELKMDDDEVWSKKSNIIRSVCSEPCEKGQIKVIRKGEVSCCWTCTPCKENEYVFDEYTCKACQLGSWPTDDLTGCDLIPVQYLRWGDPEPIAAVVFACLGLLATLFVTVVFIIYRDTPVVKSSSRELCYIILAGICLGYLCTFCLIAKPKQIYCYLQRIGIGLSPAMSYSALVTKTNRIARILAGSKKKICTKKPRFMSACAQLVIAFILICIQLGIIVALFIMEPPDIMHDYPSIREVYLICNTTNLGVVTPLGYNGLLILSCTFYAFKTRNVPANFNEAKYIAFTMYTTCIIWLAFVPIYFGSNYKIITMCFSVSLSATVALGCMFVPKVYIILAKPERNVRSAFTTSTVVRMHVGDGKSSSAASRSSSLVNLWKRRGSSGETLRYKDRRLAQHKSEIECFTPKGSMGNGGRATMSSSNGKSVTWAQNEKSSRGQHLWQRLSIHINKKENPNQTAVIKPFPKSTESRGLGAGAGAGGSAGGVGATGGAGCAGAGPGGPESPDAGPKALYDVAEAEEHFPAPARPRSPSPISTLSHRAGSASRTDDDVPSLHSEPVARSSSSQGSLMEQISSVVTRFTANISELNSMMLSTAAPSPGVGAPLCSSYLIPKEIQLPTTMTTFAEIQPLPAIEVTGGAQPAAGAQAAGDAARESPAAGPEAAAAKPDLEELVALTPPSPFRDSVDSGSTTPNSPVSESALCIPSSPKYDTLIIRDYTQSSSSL

[2] = biological target: T1, Metabotropic glutamate receptor 5; assay: Positive allosteric modulation of mGlu5 receptor assessed as calcium mobilization at 30 uM relative to glutamate; format: functional
Target sequence in this assay (P41594 21-1212 limits assumed): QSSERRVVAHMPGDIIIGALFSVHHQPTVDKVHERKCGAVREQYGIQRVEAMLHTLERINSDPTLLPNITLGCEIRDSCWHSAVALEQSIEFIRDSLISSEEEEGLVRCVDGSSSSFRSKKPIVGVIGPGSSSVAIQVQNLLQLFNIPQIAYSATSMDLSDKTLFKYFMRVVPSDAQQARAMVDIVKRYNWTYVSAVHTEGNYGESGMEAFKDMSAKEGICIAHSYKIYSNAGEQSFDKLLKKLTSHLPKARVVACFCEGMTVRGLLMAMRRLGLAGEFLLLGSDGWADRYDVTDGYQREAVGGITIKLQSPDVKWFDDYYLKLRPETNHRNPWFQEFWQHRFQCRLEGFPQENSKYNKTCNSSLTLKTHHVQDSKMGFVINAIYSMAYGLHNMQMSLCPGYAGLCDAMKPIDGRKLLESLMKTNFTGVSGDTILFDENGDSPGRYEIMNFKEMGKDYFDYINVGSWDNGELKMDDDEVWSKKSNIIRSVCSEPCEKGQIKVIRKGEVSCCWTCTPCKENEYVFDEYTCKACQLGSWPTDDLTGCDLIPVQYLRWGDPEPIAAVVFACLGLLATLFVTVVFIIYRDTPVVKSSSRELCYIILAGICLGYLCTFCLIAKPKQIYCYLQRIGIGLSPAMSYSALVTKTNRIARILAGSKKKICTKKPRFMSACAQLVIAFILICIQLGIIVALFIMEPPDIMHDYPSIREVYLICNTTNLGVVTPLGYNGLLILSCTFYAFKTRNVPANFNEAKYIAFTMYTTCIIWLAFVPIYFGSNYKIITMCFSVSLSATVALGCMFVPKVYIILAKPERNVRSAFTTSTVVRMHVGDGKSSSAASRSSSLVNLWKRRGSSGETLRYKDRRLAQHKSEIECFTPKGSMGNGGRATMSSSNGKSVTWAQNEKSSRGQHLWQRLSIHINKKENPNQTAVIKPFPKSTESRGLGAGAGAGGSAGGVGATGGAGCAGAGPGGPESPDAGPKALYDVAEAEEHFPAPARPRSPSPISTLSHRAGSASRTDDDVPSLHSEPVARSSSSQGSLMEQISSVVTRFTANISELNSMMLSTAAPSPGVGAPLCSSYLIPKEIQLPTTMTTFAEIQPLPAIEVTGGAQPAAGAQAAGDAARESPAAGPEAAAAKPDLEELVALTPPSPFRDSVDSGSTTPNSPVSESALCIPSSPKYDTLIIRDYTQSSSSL

Rattus norvegicus = assay: Antipsychotic activity in rat assessed as reversal of amphetamine-induced hyperlocomotion at 30 mg/kg, ip; format: functional, organism-based; parameters: dose 30 mg/kg
[3] = biological target: T1, Metabotropic glutamate receptor 5; assay: Antagonist activity against mGlu5 receptor assessed as inhibition of calcium mobilization
Target sequence in this assay (P41594 whole entry): as the sequence (P41594 whole entry) above

EC50 [1] [nM] | Activity [2] [%] | SMILES | Activity (Rattus norvegicus) | IC50 [3] [nM]
180 | 69 | O=C1c2ccc(C#Cc3ccccc3)cc2CCN1CC1CC1 | Active | 
3600 | 84 | O=C1c2ccc(C#Cc3ccccc3)cc2CCN1CCN1CCOCC1 |  | 
> 10000 |  | O=C1NCCc2cc(C#Cc3ccc(Cl)cc3)ccc21 |  | 
> 10000 |  | COc1ccc(C#Cc2ccc3c(c2)CCNC3=O)cc1 |  | 
610 | 53 | Cc1ccccc1C#Cc1ccc2c(c1)CCNC2=O |  | 
54 | 40 | CC(C)CN1CCc2nc(C#Cc3cccc(F)c3)ccc2C1=O |  | 
250 | 53 | CN1CCc2cc(C#Cc3ccccc3)ccc2C1=O |  | 
96 | 97 | CCCCN1CCc2cc(C#Cc3ccccc3)ccc2C1=O |  | 
150 | 80 | O=C1NCCc2cc(C#Cc3ccccc3F)ccc21 |  | 
12 | 93 | O=C1NC(=O)c2cc(C#Cc3ccccc3F)ccc21 |  | 
 |  | O=C1NCCc2cc(C#Cc3ccccc3)ccc21 | Active | 
 |  | O=C1c2ccc(C#Cc3cccc(F)c3)nc2CCN1CC1CC1 |  | 660
3700 | 50 | O=C1NCCc2cc(C#Cc3ccccc3Cl)ccc21 |  | 
170 | 76 | Cc1cccc(C#Cc2ccc3c(c2)CCNC3=O)c1 |  | 
35 | 99 | O=C1NC(=O)c2cc(C#Cc3cccc(F)c3)ccc21 |  | 
 | 69 | O=C1NCc2cc(C#Cc3ccccc3)ccc21 |  | 
66 | 71 | O=C1NCc2cc(C#Cc3cccc(F)c3)ccc21 |  | 
550 | 90 | O=C1c2ccc(C#Cc3ccccc3)cc2CCN1Cc1ccccc1 |  | 
470 | 68 | O=C1NCCc2cc(C#Cc3cccc(Cl)c3)ccc21 |  | 
260 | 81 | O=C1NCCc2cc(C#Cc3ccc(F)cc3)ccc21 |  | 

EC50 [1] [nM] | Activity [2] [%] | SMILES | Activity (Rattus norvegicus) | IC50 [3] [nM]
16 | 87 | O=C(NC1CCC1)c1ccc(C#Cc2cccc(F)c2)nc1 |  | 
350 | 60 | O=C1NCc2cc(C#Cc3ccc(F)cc3)ccc21 |  | 
4000 | 77 | O=C1c2ccc(C#Cc3ccccc3)cc2CCN1CCN1CCC1 |  | 
270 | 91 | O=C1c2ccc(C#Cc3ccccc3)cc2CCN1CC1CCC1 |  | 
3400 | 58 | COc1cccc(C#Cc2ccc3c(c2)CCNC3=O)c1 |  | 
870 | 40 | O=C1c2ccc(C#Cc3ccccc3)cc2C(=O)N1CCc1ccccn1 |  | 
160 | 97 | CCCN1CCc2cc(C#Cc3ccccc3)ccc2C1=O | Active | 
170 | 84 | O=C1NC(=O)c2cc(C#Cc3ccc(F)c(F)c3)ccc21 |  | 
160 | 88 | O=C1NC(=O)c2cc(C#Cc3ccc(F)cc3)ccc21 |  | 
56 | 46 | CCCCN1CCc2nc(C#Cc3cccc(F)c3)ccc2C1=O |  | 
 |  | CN1CCc2nc(C#Cc3cccc(F)c3)ccc2C1=O |  | 170
900 | 76 | O=C1c2ccc(C#Cc3ccccc3)cc2C(=O)N1CCc1ccncc1 |  | 
10 | 72 | O=C(c1ccc(C#Cc2ccccc2)cc1)N1CCC(O)CC1 |  | 
4900 | 53 | Cc1cc(C#Cc2ccc3c(c2)CCNC3=O)ccc1F |  | 
130 | 53 | O=C1c2ccc(C#Cc3cccc(F)c3)nc2CCN1CC1CCC1 |  | 
5700 | 44 | O=C1c2ccc(C#Cc3ccccc3)cc2C(=O)N1CCN1CCOCC1 |  | 
200 | 67 | O=C1NCc2cc(C#Cc3ccccc3F)ccc21 |  | 
290 | 72 | O=C1NCCc2nc(C#Cc3cccc(F)c3)ccc21 |  | 
850 | 59 | O=C1NCCc2cc(C#Cc3ccc(F)cc3F)ccc21 |  | 
